Assay results: patent US20020026052A1, “3-cyanoquinolines, 3-cyano-1,6-naphthyridines, and 3-cyano-1,7-naphthyridines as protein kinase inhibitors” (American Home Products Corporation, priority 2000, published 2002)
Where “and” joins values, the source holds several entries; their conditions need not be identical. Equal values may be shown once.

Tested on: not given
Assay: not given
Settings: not given

Structure (SMILES)	melting point
Cn1ccnc1Sc1ccc(Nc2c(C#N)cnc3cc(-c4ccc(CN5CCN(C(=O)OC(C)(C)C)CC5)cc4)ccc23)cc1Cl [Example 137, tert-butyl 4-{4-[4-({3-chloro-4-[(1-methylimidazol-2-yl)sulfanyl]phenyl}amino)-3-cyano-7-quinolinyl]benzyl}-1-piperazinecarboxylate]	184 to 186 °C
Cc1cc(Nc2c(C#N)cnc3cc(-c4csc(C5OCCO5)c4)ccc23)ccc1OCc1ccccn1 [Example 94, 7-[5-(1,3-Dioxolan-2-yl)-3-thienyl]-4-[3-methyl-4-(2-pyridinylmethoxy)anilino]-3-quinolinecarbonitrile]	194 to 196 °C
COc1cc(Nc2c(C#N)cnc3cc(-c4cnc(CN5CCN(C)CC5)n4C)c(OC)cc23)c(Cl)cc1Cl [Example 233, 4-(2,4-Dichloro-5-methoxyanilino)-6-methoxy-7-{1-methyl-2-[(4-methyl-1-piperazinyl)methyl]-1H-imidazol-5-yl}-3-quinolinecarbonitrile]	234 to 236 °C
CCN1CCN(Cc2ccnc(-c3ccc4c(Nc5ccc(Sc6nccn6C)c(Cl)c5)c(C#N)cnc4c3)c2)CC1 [Example 205, 4-({3-Chloro-4-[(1-methyl-iH-imidazol-2-yl)sulfanyl]phenyl}amino)-7-{4-[(4-ethyl-1-piperazinyl)methyl]-2-pyridinyl}-3-quinolinecarbonitrile]	150 to 153 °C
Cn1ccnc1Sc1ccc(Nc2c(C#N)cnc3cc(-c4ccc(N5CCOCC5)nc4)ccc23)cc1Cl [Example 190, 4-{3-Chloro-4-[(1-methyl-1H-imidazol-2-yl)sulfanyl]anilino}-7-[6-(4-morpholinyl)-3-pyridinyl]-3-quinolinecarbonitrile]	> 250 °C
COc1cc(Nc2c(C#N)cnc3cc(-c4csc(C=O)c4)ccc23)c(Cl)cc1Cl [Example 43, 4-(2,4-Dichloro-5-methoxyanilino)-7-(5-formyl-3-thienyl)-3-quinolinecarbonitrile]	259 to 262 °C (dec.)
CN1CCN(Cc2ccc(-c3ccc4c(Nc5ccc(Sc6nccn6C)c(Cl)c5)c(C#N)cnc4c3)nc2)CC1 [Example 189, 4-{3-Chloro-4-[(1-methyl-1H-imidazol-2-yl)sulfanyl]anilino}-7-1-{5-[(4-methyl-1-piperazinyl)methyl]-2-pyridinyl}-3-quinolinecarbonitrile]	197 to 199 °C
CN1CCN(Cc2ccc(-c3ccc4c(Nc5ccc(Sc6nccn6C)c(Cl)c5)c(C#N)cnc4c3)cn2)CC1 [Example 221, 4-({3-Chloro-4-[(1-methyl-1H-imidazol-2-yl)sulfanyl]phenyl}amino)-7-1-{6-[(4-methyl-1-piperazinyl)methyl]-3-pyridinyl}-3-quinolinecarbonitrile]	228 to 230 °C
N#Cc1cnc2cc(-c3ccc(-c4ccccn4)s3)ccc2c1Nc1ccc(Cl)cc1Cl [Example 18, 4-(2,4-dichloroanilino)-7-[5-(2-pyridinyl)-2-thienyl]-3-quinolinecarbonitrile]	270 °C (dec.)
Cn1ccnc1Sc1ccc(Nc2c(C#N)cnc3cc(-c4ccc(CN5CCC(N6CCCC6)CC5)cn4)ccc23)cc1Cl [Example 173, 4-{3-Chloro-4-[(1-methyl-1H-imidazol-2-yl)sulfanyl]anilino}-7-(5-{[4-(1-pyrrolidinyl)-1-piperidinyl]methyl}-2-pyridinyl)-3-quinolinecarbonitrile]	183 to 185 °C
CN1CCN(Cc2cccnc2-c2ccc3c(Nc4ccc(Sc5nccn5C)c(Cl)c4)c(C#N)cnc3c2)CC1 [Example 209, 4-({3-Chloro-4-[(I -methyl-1H-imidazol-2-yl)sulfanyl]phenyl}amino)-7-{3-[(4-methyl-1-piperazinyl)methyl]-2-pyridinyl}-3-quinolinecarbonitrile]	217 to 220 °C
Cn1ccnc1Sc1ccc(Nc2c(C#N)cnc3cc(-c4ccc(Cl)cn4)ccc23)cc1Cl [Example 178, 4-({3-Chloro-4-[(1-methyl-1H-imidazol-2-yl)sulfanyl]phenyl}amino)-7-(5-chloro-2-pyridinyl)-3-quinolinecarbonitrile]	205 to 207 °C
COc1cc2c(Nc3ccc(Sc4nccn4C)c(Cl)c3)c(C#N)cnc2cc1-c1csc(CN2CCN(C)CC2)c1 [Example 126, 4-{3-chloro-4-[(1-methylimidazol-2-yl)sulfanyl]anilino}-6-methoxy-7-{5-[(4-methyl-1-piperazinyl)methyl]-3-thienyl}-3-quinolinecarbonitrile]	162 to 164 °C
CN1CCN(Cc2cccc(-c3ccc4c(Nc5ccc(Sc6nccn6C)c(Cl)c5)c(C#N)cnc4c3)n2)CC1 [Example 202, 4-{3-Chloro-4-[(1-methyl-1H-imidazol-2-yl)sulfanyl]anilino}-7-{6-[(4-methyl-1-piperazinyl)methyl]-2-pyridinyl}-3-quinolinecarbonitrile]	157 to 159 °C

Next, values leading:

melting point	Structure (SMILES)
158 to 160 °C	N#Cc1cnc2cc(-c3cc(CN4CCOCC4)c(CN4CCOCC4)s3)ccc2c1Nc1ccc(Oc2ccccc2)cc1 [Example 168, 7-[4,5-Bis(4-morpholinylmethyl)-2-thienyl]-4-(4-phenoxyanilino)-3-quinolinecarbonitrile]
195 to 197 °C	COc1cc(Nc2c(C#N)cnc3cc(-c4ccc(CN5CCOCC5)nc4)ccc23)c(Cl)cc1Cl
195 °C (dec.)	Cn1ccnc1Sc1ccc(Nc2c(C#N)cnc3cc(-c4ncccc4CN4CCOCC4)ccc23)cc1Cl [Example 207, 4-({3-Chloro-4-[(1-methyl-1H-imidazol-2-yl)sulfanyl]phenyl}amino)-7-[3-(4-morpholinylmethyl)-2-pyridinyl]-3-quinolinecarbonitrile]
147 to 149 °C	Cn1ccnc1Sc1ccc(Nc2c(C#N)cnc3cc(-c4ccc(CN5CCC(O)CC5)s4)ccc23)cc1Cl [Example 159, 4-{3-Chloro-4-[(1-methyl-1H-imidazol-2-yl)sulfanyl]anilino}-7-{5-[(4-hydroxy-1-piperidinyl)methyl]-2-thienyl}-3-quinolinecarbonitrile]
145 to 147 °C	Cn1ccnc1Sc1ccc(Nc2c(C#N)cnc3cc(-c4ccc(CN5CCN(CCO)CC5)s4)ccc23)cc1Cl [Example 161, 4-{3-Chloro-4-[(1-methyl-1H-imidazol-2-yl)sulfanyl]anilino}-7-(5-{[4-(2-hydroxyethyl)-1-piperazinyl]methyl}-2-thienyl)-3-quinolinecarbonitrile]
217 to 219 °C	Cc1cc(Nc2c(C#N)cnc3cc(-c4csc(CN5CCOCC5)c4)ccc23)ccc1OCc1ccccn1 [Example 95, 4-[3-Methyl-4-(2-pyridinylmethoxy)anilino]-7-[5-(4-morpholinylmethyl)-3-thienyl]-3-quinolinecarbonitrile]

Molecular target: Rat2 fibroblasts stably transformed with v-Src/Hu c-Src fusion gene (Homo sapiens, UniProt P12931, cells depend on it, form not given)
Sequence (P12931 whole entry, change not shown, the tested form may be a part): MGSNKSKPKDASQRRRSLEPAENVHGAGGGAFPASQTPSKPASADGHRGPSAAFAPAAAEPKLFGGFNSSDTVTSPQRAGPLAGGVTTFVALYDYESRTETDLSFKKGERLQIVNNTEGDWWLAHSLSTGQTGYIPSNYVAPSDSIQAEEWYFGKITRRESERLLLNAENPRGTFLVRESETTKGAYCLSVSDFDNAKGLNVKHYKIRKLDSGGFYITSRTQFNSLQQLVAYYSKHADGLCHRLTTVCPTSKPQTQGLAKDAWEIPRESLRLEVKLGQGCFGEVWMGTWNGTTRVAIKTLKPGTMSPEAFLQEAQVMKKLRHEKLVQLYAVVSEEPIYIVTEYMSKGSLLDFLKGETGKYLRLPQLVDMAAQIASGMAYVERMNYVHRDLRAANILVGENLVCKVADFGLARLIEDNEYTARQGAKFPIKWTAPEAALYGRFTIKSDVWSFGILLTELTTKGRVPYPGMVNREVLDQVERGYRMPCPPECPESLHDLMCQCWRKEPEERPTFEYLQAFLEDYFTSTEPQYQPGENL
Assay: Anchorage Independent Src-transformed Fibroblast Proliferation Assay
Format: cell-based, Rat
Settings: suspension growth, MTS reagent on Day 5; read-out: anch-indep src-tx fib IC50
Description: Anchorage Independent Src-transformed Fibroblast Proliferation Assay
Rat2 fibroblasts stably transformed with a plasmid containing a CMV promotor controlled v-Src/Hu c-Src fusion gene in which the catalytic domain of human c-Src was inserted in place of the v-Src catalytic domain in the v-Src gene are used for the measurement of src dependent suspension growth. […] Multiple entries for a given compound indicate that it was tested multiple times.

Structure (SMILES)	GI50
COc1cc(Nc2c(C#N)cnc3cc(C#Cc4ccccn4)ccc23)c(Cl)cc1Cl [Example 91, 4-(2,4-Dichloro-5-methoxyanilino)-7-[2-(2-pyridinyl)ethynyl]-3-quinolinecarbonitrile]	> 10 µM
COc1cc(Nc2c(C#N)cnc3cc(C#Cc4ccccc4)ccc23)c(Cl)cc1Cl [Example 140, 4-(2,4-Dichloro-5-methoxyanilino)-7-(2-phenylethynyl)-3-quinolinecarbonitrile]	> 10 µM
CCN1CCN(Cc2cc(-c3ccc4c(Nc5cc(OC)c(Cl)cc5Cl)c(C#N)cnc4c3)cs2)CC1 [Example 19, 4-(2,4-dichloro-5-methoxyanilino)-7-{5-[(4-ethyl-1-piperazinyl)methyl]-3-thienyl}-3-quinolinecarbonitrile]	0.16 µM
COc1cc(Nc2c(C#N)cnc3cc(-c4cccc(CCN5CCOCC5)c4)c(OC)cc23)c(Cl)cc1Cl [Example 38, 4-(2,4-Dichloro-5-methoxyanilino)-6-methoxy-7-{3-[2-(4-morpholinyl)ethyl]phenyl}-3-quinolinecarbonitrile]	12.7 µM and 10.6 µM
COc1cc(Nc2c(C#N)cnc3cc(-c4ccccc4C=O)ccc23)c(Cl)cc1Cl [Example 114, 4-(2,4-Dichloro-5-methoxyanilino)-7-(2-formylphenyl)-3-quinolinecarbonittile]	> 10 µM
COc1cc(Nc2c(C#N)cnc3cc(-c4cccc(CN5CCN(C)CC5)c4)ccc23)c(Cl)cc1Cl [Example 113, 4-(2,4-dichloro-5-methoxyanilino)-7-{3-[(4-methyl-1-piperazinyl)methyl]phenyl}-3-quinolinecarbonitrile]	1.4 µM
COc1cc(Nc2c(C#N)cnc3cc(-c4ccc[nH]4)ccc23)c(Cl)cc1Cl [Example 104, 4-(2,4-Dichloro-5-methoxyanilino)-7-(1H-pyrrol-2-yl)-3-quinolinecarbonitrile]	0.56 µM

The next lines start with the values.

GI50	Structure (SMILES)
4.1 µM	COc1cc(Nc2c(C#N)cnc3cc(-c4cccc(CCN5CCOCC5)c4)ccc23)c(Cl)cc1Cl [Example 28, 4-(2,4-Dichloro-5-methoxyanilino)-7-{3-[2-(4-morpholinyl)ethyl]phenyl}-3-quinolinecarbonitrile]
0.09 µM	COc1cc(Nc2c(C#N)cnc3cc(-c4ccc(CN5CCOCC5)s4)ccc23)c(Cl)cc1Cl [Example 23, 4-(2,4-Dichloro-5-methoxyanilino)-7-[5-(4-morpholinylmethyl)-2-thienyl]-3-quinolinecarbonitrile]
> 10 µM	COc1cc(Nc2c(C#N)cnc3cc(-c4ccsc4CN4CCOCC4)ccc23)c(Cl)cc1Cl [Example 66, 4-(2,4-Dichloro-5-methoxyanilino)-7-[2-(4-morpholinylmethyl)-3-thienyl]-3-quinolinecarbonitrile]
> 10 µM	COc1cc(Nc2c(C#N)cnc3cc(-c4cscc4CN4CCOCC4)ccc23)c(Cl)cc1Cl [Example 65, 4-(2,4-Dichloro-5-methoxyanilino)-7-[4-(4-morpholinylmethyl)-3-thienyl]-3-quinolinecarbonitrile]
